pKi: −log10 of the molar value.
Target: WDR5 (Homo sapiens (Human), UniProt P61964)
Experiment: TR-FRET binding assay, displacement of 10mer-Thr-FAM probe from His-tagged WDR5
Details: Inhibition of WDR5 by TR-FRET assay
Description: The LanthaScreenTM Elite Tb-anti-HIS Antibody from ThermoFisher Scientific was used for this purpose. […] The ratio of the 520 and 495 signals are then utilized to generate a dose-response curve to calculate an IC50 value. […] WDR[…] tag protein is used at 2 nM.

SMILES	pKi
COc1cc(OC)cc(C(C)NC(=O)c2cc(CNC3=NCCN3)cc(-c3ccc(F)cc3C)c2)c1 (racemic) [Example 1, (±)-5-(((4,5-dihydro-1H-imidazol-2-yl)amino)methyl)-N-(1-(3,5-dimethoxyphenyl)ethyl)-4′-fluoro-2′-methyl-[1,1′-biphenyl]-3-carboxamide]	9.34
COc1ccc(CNC(=O)c2cc(CNC3=NCCN3)cc(-c3ccc(F)nc3C)c2)cc1OC [Example 4, 3-(((4,5-Dihydro-1H-imidazol-2-yl)amino)methyl)-N-(3,4-dimethoxybenzyl)-5-(6-fluoro-2-methylpyridin-3-yl)benzamide]	9.44
Cc1cc(CNC(=O)c2cc(CNC3=NCCN3)cc(-c3ccc(F)nc3C)c2)ccc1Cl [Example 5, N-(4-chloro-3-methylbenzyl)-3-(((4,5-dihydro-1H-imidazol-2-yl)amino)methyl)-5-(6-fluoro-2-methylpyridin-3-yl)benzamide]	10.70
Cc1cc(C)cc(CNC(=O)c2cc(CNC3=NCCN3)cc(-c3ccc(F)nc3C)c2)c1 [Example 6, 3-(((4,5-Dihydro-1H-imidazol-2-yl)amino)methyl)-N-(3,5-dimethylbenzyl)-5-(6-fluoro-2-methylpyridin-3-yl)benzamide]	9.85
COc1cc(CN(C)C(=O)c2cc(CNC3=NCCN3)cc(-c3ccc(F)nc3C)c2)cc(OC)c1 [Example 8, 3-(((4,5-Dihydro-1H-imidazol-2-yl)amino)methyl)-N-(3,5-dimethoxybenzyl)-5-(6-fluoro-2-methylpyridin-3-yl)-N-methylbenzamide]	7.92
Cc1ccnc(C(NC(=O)c2cc(CNC3=NCCN3)cc(-c3ccc(F)nc3C)c2)C2CC2)c1 (stereo not drawn) [Example 9, N-(Cyclopropyl(4-methylpyridin-2-yl)methyl)-3-(((4,5-dihydro-1H-imidazol-2-yl)amino)methyl)-5-(6-fluoro-2-methylpyridin-3-yl)benzamide]	> 10.00
Cc1nc(F)ccc1-c1cc(CNC2=NCCN2)cc(C(=O)NC(C2CC2)C2CC2)c1 [Example 10, N-(dicyclopropylmethyl)-3-(((4,5-dihydro-1H-imidazol-2-yl)amino)methyl)-5-(6-fluoro-2-methylpyridin-3-yl)benzamide]	8.54
COc1ccnc(CNC(=O)c2cc(CNC3=NCCN3)cc(-c3ccc(F)nc3C)c2)c1 [Example 11, 3-(((4,5-Dihydro-1H-imidazol-2-yl)amino)methyl)-5-(6-fluoro-2-methylpyridin-3-yl)-N-((4-methoxypyridin-2-yl)methyl)benzamide]	9.66
Cc1ccncc1-c1cc(CNC2=NCCN2)cc(C(=O)NCc2ccc(Cl)c(Cl)c2)c1 [Example 12, N-(3,4-dichlorobenzyl)-3-(((4,5-dihydro-1H-imidazol-2-yl)amino)methyl)-5-(4-methylpyridin-3-yl)benzamide]	> 10.00
COc1cc(CNC(=O)c2cc(CNC3=NCCN3)cc(-c3cnccc3C)c2)cc(OC)c1 [Example 13, 3-(((4,5-dihydro-1H-imidazol-2-yl)amino)methyl)-N-(3,5-dimethoxybenzyl)-5-(4-methylpyridin-3-yl)benzamide]	9.28
COc1ccc(CNC(=O)c2cc(CNC3=NCCN3)cc(-c3cnccc3C)c2)cc1Cl [Example 14, N-(3-chloro-4-methoxybenzyl)-3-(((4,5-dihydro-1H-imidazol-2-yl)amino)methyl)-5-(4-methylpyridin-3-yl)benzamide]	9.13
COc1ccc(CNC(=O)c2cc(CNC3=NCCN3)cc(-c3ccnc(C)c3)c2)cc1OC [Example 15, 3-(((4,5-dihydro-1H-imidazol-2-yl)amino)methyl)-N-(3,4-dimethoxybenzyl)-5-(2-methylpyridin-4-yl)benzamide]	8.77
Cc1cc(-c2cc(CNC3=NCCN3)cc(C(=O)NCc3cc(F)cc(Cl)c3)c2)ccn1 [Example 16, N-(3-chloro-5-fluorobenzyl)-3-(((4,5-dihydro-1H-imidazol-2-yl)amino)methyl)-5-(2-methylpyridin-4-yl)benzamide]	9.28
COc1cc(CNC(=O)c2cc(CNC3=NCCN3)cc(-c3ccnc(C)c3)c2)ccc1Cl [Example 17, N-(4-chloro-3-methoxybenzyl)-3-(((4,5-dihydro-1H-imidazol-2-yl)amino)methyl)-5-(2-methylpyridin-4-yl)benzamide]	8.49
COc1cc(CNC(=O)c2cc(CNC3=NCCN3)cc(-c3cnccc3C)c2)ccc1Cl [Example 18, N-(4-Chloro-3-methoxybenzyl)-3-(((4,5-dihydro-1H-imidazol-2-yl)amino)methyl)-5-(4-methylpyridin-3-yl)benzamide]	8.51
COc1ccnc(CNC(=O)c2cc(CNC3=NCCN3)cc(-c3cnccc3C)c2)c1 [Example 19, 3-(((4,5-Dihydro-1H-imidazol-2-yl)amino)methyl)-N-((4-methoxypyridin-2-yl)methyl)-5-(4-methylpyridin-3-yl)benzamide]	9.35
COc1cc(OC)cc(C(C)NC(=O)c2cc(CNC3=NCCN3)cc(-c3cnccc3C)c2)c1 (stereo not drawn) [Example 20, 3-(((4,5-dihydro-1H-imidazol-2-yl)amino)methyl)-N-(1-(3,5-dimethoxyphenyl)ethyl)-5-(4-methylpyridin-3-yl)benzamide]	9.22

SMILES	pKi
COc1ccnc(CNC(=O)c2cc(CNC3=NCCN3)cc(-c3ccnc(C)c3)c2)c1 [Example 21, 3-(((4,5-Dihydro-1H-imidazol-2-yl)amino)methyl)-N-((4-methoxypyridin-2-yl)methyl)-5-(2-methylpyridin-4-yl)benzamide]	9.41
Cc1cc(-c2cc(CNC3=NCCN3)cc(C(=O)NCc3cc(Cl)ccn3)c2)ccn1 [Example 22, N-((4-chloropyridin-2-yl)methyl)-3-(((4,5-dihydro-1H-imidazol-2-yl)amino)methyl)-5-(2-methylpyridin-4-yl)benzamide]	9.55
COc1ccc(CNC(=O)c2cc(CNC3=NCCN3)cc(-c3ccnc(C)c3)c2)cc1Cl [Example 23, N-(3-chloro-4-methoxybenzyl)-3-(((4,5-dihydro-1H-imidazol-2-yl)amino)methyl)-5-(2-methylpyridin-4-yl)benzamide]	8.89
Cc1ccncc1-c1cc(CNC2=NCCN2)cc(C(=O)NCc2cc(F)cc(Cl)c2)c1 [Example 24, N-(3-chloro-5-fluorobenzyl)-3-(((4,5-dihydro-1H-imidazol-2-yl)amino)methyl)-5-(4-methylpyridin-3-yl)benzamide]	9.43
Cc1ccnc(C(NC(=O)c2cc(CNC3=NCCN3)cc(-c3cnccc3C)c2)C2CC2)c1 (stereo not drawn) [Example 25, N-(cyclopropyl(4-methylpyridin-2-yl)methyl)-3-(((4,5-dihydro-1H-imidazol-2-yl)amino)methyl)-5-(4-methylpyridin-3-yl)benzamide]	9.70
Cc1ccc(CNC(=O)c2cc(CNC3=NCCN3)cc(-c3ccnc(C)c3)c2)cn1 [Example 26, 3-(((4,5-dihydro-1H-imidazol-2-yl)amino)methyl)-N-((6-methylpyridin-3-yl)methyl)-5-(2-methylpyridin-4-yl)benzamide]	8.52
Cc1cc(-c2cc(CNC3=NCCN3)cc(C(=O)NCc3ccc(Cl)cn3)c2)ccn1 [Example 27, N-((5-chloropyridin-2-yl)methyl)-3-(((4,5-dihydro-1H-imidazol-2-yl)amino)methyl)-5-(2-methylpyridin-4-yl)benzamide]	8.82
Cc1ccc(CNC(=O)c2cc(CNC3=NCCN3)cc(-c3cnccc3C)c2)cn1 [Example 28, 3-(((4,5-Dihydro-1H-imidazol-2-yl)amino)methyl)-5-(4-methylpyridin-3-yl)-N-((6-methylpyridin-3-yl)methyl)benzamide]	8.12
Cc1cc(-c2cc(CNC3=NCCN3)cc(C(=O)NCc3nccc(C)n3)c2)ccn1 [Example 29, 3-(((4,5-Dihydro-1H-imidazol-2-yl)amino)methyl)-5-(2-methylpyridin-4-yl)-N-((4-methylpyrimidin-2-yl)methyl)benzamide]	7.89
COc1cc(CNC(=O)c2cc(CNC3=NCCN3)cc(-c3cnc(F)c(C)c3)c2)cc(OC)c1 [Example 30, 3-(((4,5-Dihydro-1H-imidazol-2-yl)amino)methyl)-N-(3,5-dimethoxybenzyl)-5-(6-fluoro-5-methylpyridin-3-yl)benzamide]	9.48
Cc1cc(CNC(=O)c2cc(CNC3=NCCN3)cc(-c3cnc(F)c(C)c3)c2)ccc1Cl [Example 31, N-(4-Chloro-3-methylbenzyl)-3-(((4,5-dihydro-1H-imidazol-2-yl)amino)methyl)-5-(6-fluoro-5-methylpyridin-3-yl)benzamide]	> 10.00
Cc1cccc(Oc2cc(CNC3=NCCN3)cc(C(=O)NCc3ccc(Cl)c(Cl)c3)c2)c1 [Example 32, N-(3,4-Dichlorobenzyl)-3-(((4,5-dihydro-1H-imidazol-2-yl)amino)methyl)-5-(m-tolyloxy)benzamide]	9.04
COc1cc(OC)cc(C(C)NC(=O)c2cc(CNC3=NCCN3)cc(C(F)(F)F)c2)c1 (stereo not drawn) [Example 33, 3-(((4,5-Dihydro-1H-imidazol-2-yl)amino)methyl)-N-(1-(3,5-dimethoxyphenyl)ethyl)-5-(trifluoromethyl)benzamide]	8.05
COc1cc(CNC(=O)c2cc(CNC3=NCCN3)cc(-c3cnc(OC)c(Cl)c3)c2)cc(OC)c1 [Example 34, 3-(5-Chloro-6-methoxypyridin-3-yl)-5-(((4,5-dihydro-1H-imidazol-2-yl)amino)methyl)-N-(3,5-dimethoxybenzyl)benzamide]	9.43
COc1cc(CNC(=O)c2cc(CNC3=NCCN3)cc(-c3cnc(F)c(Cl)c3)c2)cc(OC)c1 [Example 35, 3-(5-Chloro-6-fluoropyridin-3-yl)-5-(((4,5-dihydro-1H-imidazol-2-yl)amino)methyl)-N-(3,5-dimethoxybenzyl)benzamide]	9.44
Cc1cnc(CNC(=O)c2cc(CNC3=NCCN3)cc(-c3ccc(F)nc3C)c2)cn1 [Example 36, 3-(((4,5-dihydro-1H-imidazol-2-yl)amino)methyl)-5-(6-fluoro-2-methylpyridin-3-yl)-N-((5-methylpyrazin-2-yl)methyl)benzamide]	8.55

Source: patent US10807959B2, “WDR5-MLL1 inhibitors and modulators” (Vanderbilt University, priority 2018, dated 2020)
